A short description of data set [1]: Feasibility study on Form 1 (solubility in freeze-drying solvent mixtures). Particulars: thermodynamic from solid. It counts as physicochemical. As to the method:
The freeze drying experiments were performed in 1.8 ml vials. Approximately 20 mg of starting material were weight in a HPLC vial and dissolved in five different solvent mixtures. […] These two experimental samples were freeze-dried in liquid nitrogen, followed by placing the vials in a freeze-dryer for 24 hours. The obtained solid was then harvested and analyzed by XRPD and digital imaging.
Grinding experiments were performed in stainless steel grinding vials, containing 2 stainless steel grinding balls and a frequency of 30 Hz. Following the experiments, XRPD analysis was performed to assess the crystallinity of the materials.

Data set [2] is described as follows: Water solubility of Form 1 (observation from slurry experiment in water). It counts as physicochemical. As to the method: After the slurry time, the solids were separated from the solutions by centrifugation, harvested wet and analyzed by XRPD and digital imaging. The solids were then exposed to accelerated aging conditions (2 days at 40° C./75% RH), followed by XRPD re-analysis.
The slurry experiment in water for two weeks at room temperature produced the anhydrous starting material, Form 1.

Structures are written as SMILES. ≈ marks a conversion by molar mass, not a printed value.

Regarding `CCN1C(=O)CNc2ncc(-c3ccc(-c4nc[nH]n4)nc3C)nc21` [Form 1, 1-ethyl-7-(2-methyl-6-(1H-1,2,4-triazol-3-yl)pyridin-3-yl)-3,4-dihydropyrazino[2,3-b]pyrazin-2(1H)-one], the solubility in data set [1] (aqueous with cosolvent or surfactant or cyclodextrin, THF/Water (50/50), 25.1 mg in 1000 μL, not dissolved) was less than 25 mg/mL; in data set [1] (organic solvent or mixture, Ethanol/water (90/10), 24.2 mg in 400 μL, not dissolved), less than 60 mg/mL; in data set [1] (organic solvent or mixture, TFE/water (90/10), 20.7 mg in 1000 μL, dissolved), 21 mg/mL (≈ 62.4 mM); in data set [1] (organic solvent or mixture, TFE, 21.9 mg in 1000 μL, dissolved), 22 mg/mL (≈ 65.4 mM); in data set [1] (organic solvent or mixture, THF/water (90/10), 24.8 mg in 1000 μL, not dissolved) it was less than 25 mg/mL. In data set [2], the Solubility in water result is given as “practically insoluble”.

The record behind these values is US9416134B2 (Signal Pharmaceuticals, LLC, priority 2014, dated 2016).
